According to patent publication EP4635969A1, “NOVEL GLUCOCORTICOID, METHOD FOR PREPARING SAME, AND USE THEREOF” (Tianjin Pharmaceutical Biotechnology Co., Ltd., priority 2022, dated 2024):

Each molecule was assayed against T1, glucocorticoid receptor (GR) (Homo sapiens, UniProt P04150) (assay: Assay for agonist activity on glucocorticoid receptor (luciferase reporter, HEK293 cells transfected with pBIND-GR plasmid)). Conditions: HEK293 cells transfected with pBIND-GR, luciferase signal; read-out: GR agonist EC50.
T1 sequence (P04150 521-777): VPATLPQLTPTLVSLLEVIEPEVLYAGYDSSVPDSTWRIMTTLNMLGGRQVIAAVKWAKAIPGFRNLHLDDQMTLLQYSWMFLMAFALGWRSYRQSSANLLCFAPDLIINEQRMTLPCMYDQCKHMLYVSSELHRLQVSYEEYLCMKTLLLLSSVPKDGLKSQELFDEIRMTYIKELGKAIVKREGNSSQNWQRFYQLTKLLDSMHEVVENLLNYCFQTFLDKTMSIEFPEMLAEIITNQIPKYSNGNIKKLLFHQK
Assay type: cell-based
Experimental: Pharmacological Example 1: Assay for Agonist Activity on Glucocorticoid Receptor (GR)
The test compounds were subjected to a 4-fold serial dilution starting from an initial concentration of 10 µ M, generating a 10-point concentration gradient with duplicate wells for each concentration. The blank control consisted of 0.1 % DMSO.
The HEK293 stable cell line […] transfected with glucocorticoid receptor (GR) (ICE Bioscience, Lot No. TYP-20220519) was cultured in Dulbecco's Modified Eagle Medium (DMEM) supplemented with 10% fetal bovine serum (FBS) and 200 µ g/ml Hygromycin B in a cell incubator containing 5% CO2 at 37 °C. The spent medium was aspirated and the cells were washed once with phosphate-buffered saline (PBS). Then, 1 mL of TrypLE™ Express solution was added, and the cells were incubated at 37 °C for approximately 2 min. When the cells detached from the bottom of the cell culture dish, approximately 5 mL of pre-warmed complete medium at 37 °C was added. The cell suspension was gently pipetted with a pipette to dissociate clumped cells. The cell suspension was transferred to a sterile centrifuge tube and centrifuged at 1000 rpm for 5 min to pellet the cells for experiments or subculture.
HEK293 cells were digested and seeded into 6-cm culture dishes. The pBIND-GR plasmid was transfected into the HEK293 cells using a transfection reagent, resulting in HEK293 cells successfully transfected with the pBIND-GR plasmid. The cells were resuspended in phenol red-free DMEM medium containing 5% charcoal-stripped serum, counted, and then seeded into 96-well plates. The test compounds were added, and the plates were then incubated in an incubator. The luminescence signal values were measured using a multimode microplate reader following the instructions of the luciferase assay kit. The EC50 values of each test compound were calculated using the nonlinear fitting formula with GraphPad Prism 8.0 software.

Compound	EC50 [nM]
C[C@]12C=CC(=O)C=C1CC[C@H]1[C@@H]3C[C@H]4OC(c5ccc(C[S+]([O-])C6CCOC6=O)cc5)O[C@@]4(C(=O)CO)[C@@]3(C)C[C@H](O)[C@@]12Cl (stereo partly drawn) [Compound 57, (6aS,6bR,7S,8aS,8bS,11aR,12aS,12bS)-6b-Chloro-7-hydroxy-8b-(2-hydroxyacetyl)-6a,8a-dimethyl-10-(4-(((2-oxotetrahydrofuran-3-yl)sulfinyl)methyl)phenyl)-1,2,6a,6b,7,8,8a,8b,11a,12,12a,12b-dodecahydro-4H-naphtho[2',1':4,5]indeno[1,2-d][1,3]dioxol-4-one]	0.86
C[C@]12C=CC(=O)C=C1CC[C@H]1[C@@H]3C[C@H]4OC(c5ccc(COC6COC(=O)C6)cc5)O[C@@]4(C(=O)CO)[C@@]3(C)C[C@H](O)[C@@]12Cl (stereo partly drawn) [Compound 25, (6aS,6bR,7S,8aS,8bS,11aR,12aS,12bS)-6b-Chloro-7-hydroxy-8b-(2-hydroxyacetyl)-6a,8a-dimethyl-10-(4-(((5-oxotetrahydrofuran-3-yl)oxy)methyl)phenyl)-1,2,6a,6b,7,8,8a,8b,11a,12,12a,12b-do decahydro-4H-naphtho[2',1':4,5]indeno[1,2-d][1,3]dioxol-4-one]	1.3
C[C@]12C=CC(=O)C=C1CC[C@H]1[C@@H]3C[C@H]4OC(C5CCN(CC6CCOC6=O)CC5)O[C@@]4(C(=O)CO)[C@@]3(C)C[C@H](O)[C@@]12F (stereo partly drawn) [Compound 44, (6aS,6bR,7S,8aS,8bS,11aR,12aS,12bS)-6b-Fluoro-7-hydroxy-8b-(2-hydroxyacetyl)-6a,8a-dimethyl-10-(1-((2-oxotetrahydrofuran-3-yl)methyl)piperidin-4-yl)-1,2,6a,6b,7,8,8a,8b,11a,12,12a,12b-d odecahydro-4H-naphtho[2',1':4,5]indeno[1,2-d][1,3]dioxol-4-one]	15.1
C[C@]12C=CC(=O)C=C1[C@@H](F)C[C@H]1[C@@H]3C[C@H]4OC(c5ccc(NCC6CCOC6=O)cc5)O[C@@]4(C(=O)CO)[C@@]3(C)C[C@H](O)[C@@]12F (stereo partly drawn) [Compound 15, (2S,6aS,6bR,7S,8aS,8bS,11aR,12aS,12bS)-2,6b-Difluoro-7-hydroxy-8b-(2-hydroxyacetyl)-6a,8a-dimethyl-10-(4-(((2-oxotetrahydrofuran-3-yl)methyl)amino)phenyl)-1,2,6a,6b,7,8,8a,8b,11a,12,12 a,12b-dodecahydro-4H-naphtho[2',1':4,5]indeno[1,2-d][1,3]dioxol-4-one]	6.12
C[C@]12C=CC(=O)C=C1CC[C@H]1[C@@H]3C[C@H]4OC(c5ccc(OC6CCOC6=O)cc5)O[C@@]4(C(=O)CO)[C@@]3(C)C[C@H](O)[C@@]12F (stereo partly drawn) [Compound 40, (6aS,6bR,7S,8aS,8bS,11aR,12aS,12bS)-6b-Fluoro-7-hydroxy-8b-(2-hydroxyacetyl)-6a,8a-dimethyl-10-(4-((2-oxotetrahydrofuran-3-yl)oxy)phenyl)-1,2,6a,6b,7,8,8a,8b,11a,12,12a,12b-dodecahydr o-4H-naphtho[2',1':4,5]indeno[1,2-d][1,3]dioxol-4-one]	30.7
C[C@]12C=CC(=O)C=C1CC[C@H]1[C@@H]3C[C@H]4OC(c5ccc(NC6CCOC6=O)cc5)O[C@@]4(C(=O)CO)[C@@]3(C)C[C@H](O)[C@@]12F (stereo partly drawn) [Compound 42, (6aS,6bR,7S,8aS,8bS,11aR,12aS,12bS)-6b-Fluoro-7-hydroxy-8b-(2-hydroxyacetyl)-6a,8a-dimethyl-10-(4-((2-oxotetrahydrofuran-3-yl)amino)phenyl)-1,2,6a,6b,7,8,8a,8b,11a,12,12a,12b-dodecahy dro-4H-naphtho[2',1':4,5]indeno[1,2-d][1,3]dioxol-4-one]	19.5
C[C@]12C=CC(=O)C=C1CC[C@@H]1[C@@H]2[C@@H](O)C[C@@]2(C)[C@H]1C[C@H]1OC(c3ccc(COC4COC(=O)C4)cc3)O[C@]12C(=O)CO (stereo partly drawn) [Compound 31, (6aR,6bS, 7S,8aS,8bS,11aR,12aS,12bS)-7-Hydroxy-8b-(2-hydroxyacetyl)-6a,8a-dimethyl-10-(4-(( (5-oxotetrahydrofuran-3-yl)oxy)methyl)phenyl)-1,2,6a,6b,7,8,8a,8b,11a,12,12a,12b-dodecahydro-4H-naphtho[2',1':4,5]indeno[1,2-d][1,3]dioxol-4-one]	8.13
C[C@]12C=CC(=O)C=C1CC[C@H]1[C@@H]3C[C@H]4OC(c5ccc(CSC6COC(=O)C6)cc5)O[C@@]4(C(=O)CCl)[C@@]3(C)C[C@H](O)[C@@]12Cl (stereo partly drawn) [Compound 39, (6aS,6bR,7S,8aS,8bS,11aR,12aS,12bS)-6b-Chloro-8b-(2-chloroacetyl)-7-hydroxy-6a,8a-dimethyl-10-(4-(((5-oxotetrahydrofuran-3-yl)thio)methyl)phenyl)-l,2,6a,6b,7,8,8a,8b,11a,12,12a,12b-dode cahydro-4H-naphtho[2',1':4,5]indeno[1,2-d][1,3]dioxol-4-one]	3.31
C[C@]12C=CC(=O)C=C1[C@@H](F)C[C@H]1[C@@H]3C[C@H]4OC(c5ccc(COC6COC(=O)C6)cc5)O[C@@]4(C(=O)CO)[C@@]3(C)C[C@H](O)[C@@]12F (stereo partly drawn) [Compound 10, (2S,6aS,6bR,7S,8aS,8bS,11aR,12aS,12bS)-2,6b-Difluoro-7-hydroxy-8b-(2-hydroxyacetyl)-6a,8a-dimethyl-10-(4-(((5-oxotetrahydrofuran-3-yl)oxy)methyl)phenyl)-1,2,6a,6b,7,8,8a,8b,11a,12,12a,1 2b-dodecahydro-4H-naphtho[2',1':4,5]indeno[1,2-d][1,3]dioxol-4-one]	2.65
C[C@]12C=CC(=O)C=C1[C@@H](F)C[C@H]1[C@@H]3C[C@H]4OC(c5ccc(NC(=O)C6COC(=O)C6)cc5)O[C@@]4(C(=O)CO)[C@@]3(C)C[C@H](O)[C@@]12F (stereo partly drawn) [Compound 2, N-(4-((2S,6aS,6bR,7S,8aS,8bS,11aR,12aS,12bS)-2,6b-Difluoro-7-hydroxy-8b-(2-hydroxyacetyl)-6a,8a-dimethyl-4-oxo-2,4,6a,6b,7,8,8a,8b,11a,12,12a,12b-dodecahydro-1H-naphtho[2',1':4,5]indeno[1,2-d][1,3]dioxol-10-yl)phenyl)-5-oxotetrahydrofuran-3-carboxamide]	12.2
C[C@]12C=CC(=O)C=C1[C@@H](F)C[C@H]1[C@@H]3C[C@H]4OC(c5ccc(CS(=O)(=O)C6CCOC6=O)cc5)O[C@@]4(C(=O)CO)[C@@]3(C)C[C@H](O)[C@@]12F (stereo partly drawn) [Compound 58, (2S,6aS,6bR,7S,8aS,8bS,11aR,12aS,12bS)-2,6b-Difluoro-7-hydroxy-8b-(2-hydroxyacetyl)-6a,8a-dimethyl-10-(4-(((2-oxotetrahydrofuran-3-yl)sulfonyl)methyl)phenyl)-1,2,6a,6b,7,8,8a,8b,11a,12, 12a,12b-dodecahydro-4H-naphtho[2',1':4,5]indeno[1,2-d][1,3]dioxol-4-one]	3.67
C[C@]12C=CC(=O)C=C1[C@@H](F)C[C@H]1[C@@H]3C[C@H]4OC(C5CCN(C(=O)C6COC(=O)C6)CC5)O[C@@]4(C(=O)CO)[C@@]3(C)C[C@H](O)[C@@]12F (stereo partly drawn) [Compound 1, (2S,6aS,6bR,7S,8aS,8bS,11aR,12aS,12bS)-2,6b-Difluoro-7-hydroxy-8b-(2-hydroxyacetyl)-6a,8a-dimethyl-10-(1-(5-oxotetrahydrofuran-3-carbonyl)piperidin-4-yl)-1,2,6a,6b,7,8,8a,8b,11a,12,12a,1 2b-dodecahydro-4H-naphtho[2',1':4,5]indeno[1,2-d][1,3]dioxol-4-one]	20.3
C[C@]12C=CC(=O)C=C1CC[C@H]1[C@@H]3C[C@H]4OC(c5ccc(CSC6CCOC6=O)cn5)O[C@@]4(C(=O)CO)[C@@]3(C)C[C@H](O)[C@@]12F (stereo partly drawn) [Compound 50, (6aS,6bR,7S,8aS,8bS,11aR,12aS,12bS)-6b-Fluoro-7-hydroxy-8b-(2-hydroxyacetyl)-6a,8a-dimethyl-10-(5-(((2-oxotetrahydrofuran-3-yl)thio)methyl)pyridin-2-yl)-1,2,6a,6b,7,8,8a,8b,11a,12,12a,12 b-dodecahydro-4H-naphtho[2',1':4,5]indeno[1,2-d][1,3]dioxol-4-one]	0.98
C[C@]12C=CC(=O)C=C1CC[C@H]1[C@@H]3C[C@H]4OC(c5cnc(CSC6CCOC6=O)nc5)O[C@@]4(C(=O)CO)[C@@]3(C)C[C@H](O)[C@@]12Cl (stereo partly drawn) [Compound 54, (6aS,6bR,7S,8aS,8bS,11aR,12aS,12bS)-6b-Chloro-7-hydroxy-8b-(2-hydroxyacetyl)-6a,8a-dimethyl-10-(2-(((2-oxotetrahydrofuran-3-yl)thio)methyl)pyrimidin-5-yl)-1,2,6a,6b,7,8,8a,8b,11a,12,12a, 12b-dodecahydro-4H-naphtho[2',1':4,5]indeno[1,2-d][1,3]dioxol-4-one]	5.64
